Measurements: patent US20230107770A1, “METHOD OF ENHANCING IMMUNOTHERAPY USING ER STRESS PATHWAY INHIBITORS” (H. LEE MOFFITT CANCER CENTER AND RESEARCH INSTITUTE, INC., priority 2020, published 2023)
Entries after “also recorded” stand apart in the source; their conditions may differ.

Experiments:
[1] = tested on: FSHR+-ID8-Defb29/Vegfa ovarian tumors; assay: ER stress-targeting therapy combined with FSH-CER T cells in ovarian tumor-bearing mice; assay type: in vivo; details: MKC8866 i.p. 300 mg/kg or AMG-44 i.p. 12 mg/kg daily for one week; FSH-CER T cells days 7 and 14
Procedure: The role of the PERK-Chop in the expansion of tumor TRM cells using conditional T cell Chop-null mice was evaluated. In agreement with the inhibitory effect of Chop in TRM development, higher frequency of TRM cells was detected in tumors from T cell-Chop^KO mice compared to controls (FIG. 23A). Next, we tested the effect of the inhibition of PERK (AMG-44) and IRE 1α (MKC8866) during the expansion of IL-2-supplemented human FSH-CER T cells. […] Also, we evaluated the therapeutic effect of the combination of ER stress-targeting therapy and FSH-CER. […]
Activation of the UPR in cancer cells mediates adaptation processes in the TME, whereas UPR priming in tumor-myeloid cells promotes their immunoregulatory activity. […] As main readouts of therapeutic efficacy, we will monitor tumor burden, overall survival, and tumor CER-T cell infiltration, persistence, and cytotoxic capacity (Exp. C.2.1.1). […] Additionally, we will sort DCs and MDSC from tumor sites and lymphoid organs to quantify the expression of ER stress gene markers, their ability to impair T cell proliferation and IFNγ production, and the levels of the UPR-related immunoinhibitory factors IL-6, PGE2, Cox-2, mPGES-1, and Arginase I. All required methods are established by our groups. […]

[2] = tested on: IRE1α-generated Xbp1s mRNA; assay: Xbp1s mRNA in peritoneal leukocytes of ID8-Defb29/Vegfa-bearing mice; assay type: in vivo; details: MKC8866 300 mg/kg; leukocytes isolated 12 h later
From the text: (§1) FIGS. 19A, 19B, 19C, 19D, 19E, and 19F show Inhibition of IRE1α-XBP1 blunts tumor growth and activates effector T cell activity in tumors. […] Pictures denote the content of hemorrhagic ascites. […] FIGS. 19D, 19E, and 19F show the frequency of T cell populations in peritoneal tumors from ID8-Defb29/Vegfa-bearing mice treated with MKC8866 for two weeks. ***P<0.0001, **P<0.001 (Student's t-test). N=two repeats with a total of 8-10 mice per group.
(§2) We optimized a therapeutic scheme wherein female mice bearing orthotropic ID8-Defb29/Vegfa tumors for 7 days were treated daily for two weeks with vehicle or MKC8866, a novel small-molecule inhibitor that selectively blocks the RNase domain of IRE1α, impeding the generation of XBP1s.

human FSH-CER T cells = assay: Expansion of IL-2-supplemented human FSH-CER T cells with ER stress inhibitors; assay type: cell-based; details: treatment for 5 days
Procedure: The role of the PERK-Chop in the expansion of tumor TRM cells using conditional T cell Chop-null mice was evaluated. In agreement with the inhibitory effect of Chop in TRM development, higher frequency of TRM cells was detected in tumors from T cell-Chop^KO mice compared to controls (FIG. 23A). Next, we tested the effect of the inhibition of PERK (AMG-44) and IRE 1α (MKC8866) during the expansion of IL-2-supplemented human FSH-CER T cells. […] Also, we evaluated the therapeutic effect of the combination of ER stress-targeting therapy and FSH-CER. Thus, mice bearing FSHR+-ID8-Defb29/Vegfa ovarian tumors for 7 days received daily treatments with MKC8866 (i.p., 300 mg/kg) or AMG-44 (i.p. 12 mg/kg) for one-week, and i.p. transfer of FSH-CER T cells at days 7 and 14 post-tumor challenge. […] We postulate that treatments for longer time periods with ER stress inhibitors will further potentiate the effect of FSH-CER T cells

ID8-Defb29/Vegfa tumors = assay: Orthotopic ID8-Defb29/Vegfa ovarian tumor model treated with MKC8866; assay type: in vivo, mice
From the text: as §1, §2

COc1cc2c(C)c(CC(=O)N3CCOCC3)c(=O)oc2c(C=O)c1O [MKC8866]
survival of hosts receiving FSH-CER T cells plus inhibitor [1]: Prolonged survival | levels of IRE1α-generated Xbp1s mRNA in peritoneal leukocytes [2]: rapidly and significantly decreased | frequency of FSH-CER TRM cells (human FSH-CER T cells): Higher frequency of FSH-CER TRM cells | PD-1 in intra-tumoral CD8+ T cells (ID8-Defb29/Vegfa tumors; MKC8866-treated mice vs vehicle): upregulation of PD-1; also recorded: substantial elevation of the immune checkpoint PD-1 | generation of hemorrhagic ascites (ID8-Defb29/Vegfa tumors; MKC8866 daily for two weeks vs vehicle): impaired generation of hemorrhagic ascites | malignant progression (ID8-Defb29/Vegfa tumors; MKC8866 daily for two weeks vs vehicle, weight gain): delayed malignant progression | capacity of intra-tumoral CD8+ T cells to produce IFNγ and TNFα in situ (ID8-Defb29/Vegfa tumors; MKC8866 for two weeks): augmenting their capacity to produce both IFNγ and TNFα in situ | proportion of proliferating (Ki67+) antigen-experienced (CD44+) CD8+ T cells infiltrating tumors (ID8-Defb29/Vegfa tumors; MKC8866 for two weeks): increased the proportion
